Read-outs that look alike come from different tables or passages of the source.
Assays:
[1] = test system: induced atrial fibrillation; assay: Induced atrial fibrillation model in anesthetized dogs, intratracheal (IT) administration; format: in vivo
Protocol: Atrial Fibrillation Model: Anesthesia/Surgical Preparation: A venous catheter was placed in a peripheral vessel (i.e., cephalic) for administration of anesthetic. […] Following induction, animals were endotracheally intubated and mechanically ventilated (˜12 breaths/minute with a tidal volume of 200-300 mL). Subsequently, a cut-down on a jugular vein permitted introduction of a pacing lead into the right atrium. Transthoracic electrodes forming ECG lead II were placed. For test/vehicle article delivery, a 4F catheter was introduced through the trachea and wedged into a small airway, and a venous catheter was placed in a peripheral vessel (i.e., cephalic). […] Approximately 5 min after administration of this parasympathomimetic was started; the following experiments were performed: […] Observations were made for up to 10 minutes. […] Vehicle was only water.

[2] = test system: healthy volunteers; assay: Phase 1 study: lung spirometry tests; format: in vivo, human
Protocol: (§1) Pulmonary safety was assessed by performing lung spirometry tests and measuring peripheral oxygen saturation (SpO2%) prior to dosing and at various times after completion of the inhalation. Lung spirometry tests evaluated all lung function parameters, including forced vital capacity (FVC), forced expiratory volume in 1 second (FEV1), peak expiratory flow (PEF), and forced expiratory flow at 25% and 75% intervals (FEF25-75). Auscultation and respiration rate were also measured prior to dosing and at various times after inhalation. Chest x-rays were performed on subjects before and after flecainide inhalation.

[3] = test system: healthy volunteers; assay: Phase 1 study: auscultation, respiration rate, chest x-rays; format: in vivo, human
Protocol: as §1

[4] = test system: healthy volunteers; assay: Phase 1 study: ECG pharmacodynamics (QRS, PR, QTcF, T-wave) and PK-PD; format: in vivo, human
Protocol: The ECG recordings included: 1) Continuous real-time ECG telemetry for observation of patient safety starting at 12 hours pre-dose and continuing for 12 hours post-dose, 2) 12-lead ECGs for immediate review by medical staff to ascertain the safety of the procedures and drug administration were recorded at pre-specified (or any time as needed) before dosing (pre-dose) and after dosing (post-dose), and 3) continuous 12-lead ECG (cECG, iCardiac Holter monitoring) was recorded for 24 hours, starting 1 hour prior to dosing and up to 24 hours post dosing.
As expected from non-steady state conditions, and shown in FIGS. 84A and 84B, a temporal dissociation is observed between ([Flec]plasma) and ΔQRS. […] The hysteresis between concentrations and responses (QRS) applies for both routes of administration, IV and inhalation.

[5] = test system: induced atrial fibrillation; assay: ACh and burst-pacing-induced AF duration in pigs (Example 5); format: in vivo; conditions: IT 1.5 mg/kg
Protocol: At one min after intrapericardial administration of ACh (1 ml of 100 mM), burst pacing was performed to initiate AF in the control cohort (FIG. 60). In the experimental cohort, after ACh and burst-pacing-induced AF, a stable period of 2 min of AF was allowed (FIG. 60). […] Table 12; FIG. 61).

[6] = test system: induced atrial fibrillation; assay: Conversion of ACh/burst-pacing-induced AF in intact porcine model (Example 6); format: in vivo, pigs
Protocol: After 30-min recovery, the alternate intervention was tested. Times for conversion to normal sinus rhythm were compared.

[7] = Plasma concentrations in LV, femoral vein and pulmonary artery of dogs (Example 7); format: in vivo
[8] = test system: healthy volunteers; conditions: in vivo, iv
Protocol: (§2) 3 cohorts of subjects, in total 34 healthy adult volunteers, were recruited for Part A study.
(§3) Part B was an open label non-randomized crossover in a cohort of 6 evaluable healthy adult volunteers.
In addition, the effects of changing posture from semi-recumbent to seated upright, vice-versa and during inhalation on HR and BP were assessed (Cohort 5).

[9] = test system: healthy volunteers; conditions: in vivo
Description: as §2, §3
Adverse events were monitored and recorded.

[10] = IV 2 mg/Kg, n=3, package insert; cited from earlier work
[11] = in vivo; conditions: male, Yorkshire, pig, iv, 2 mg/kg
Protocol: The studies were carried out in male Yorkshire pigs (n=9) weighing 36±1.0 kg (mean±SEM). The pigs were pre-anesthetized with telazol (4.7 mg/kg, intramuscular) and subsequently further anesthetized using alpha-chloralose (80 mg/kg, IV bolus, followed by 24 mg/kg/h continuous IV infusion). The animals were intubated and ventilated at a constant rate of 12 breaths/min and tidal volume of 400 ml per stroke.
Simultaneous blood samples were drawn from the pigtail catheter positioned in the LV and from a catheter in the jugular vein.
The samples were centrifuged and frozen at −80° C. until drug level determination was performed using a bioanalytical assay method developed by Climax Laboratories, Inc.

[12] = physchem; conditions: water
[13] = before and after inhalation of 20, 30, 40 mg eTLD

Compound: O=C(NCC1CCCCN1)c1cc(OCC(F)(F)F)ccc1OCC(F)(F)F (stereo not shown) [flecainide, flecainide acetate]
- ECG trace: Afib conversion ([1]; 2 mg/kg body weight (FIG. 12)): Afib converting as soon as dosing occurred
- ECG trace: Afib conversion ([1]; 4 mg/kg body weight, intra-tracheal instillation (FIG. 11)): Afib converting into normal sinus rhythm
- conversion of Atrial Fibrillation to normal sinus rhythm ([1]; IT bolus): rapidly converted the Atrial Fibrillation to normal sinus rhythm
- cardiovascular effect when given by intratracheal instillation (summary) ([1]; dog, in vivo): clear cardiovascular effect
- ventricular rate ([1]; large pulmonary doses): slower ventricular rates
- drop in mean arterial pressure ([1]; pulmonary dose 2-4 mg/kg): None to minimal drop in mean arterial pressure
- conversion of induced atrial fibrillation to normal sinus rhythm ([1]; pulmonary dose 2-4 mg/kg body weight): converted the induced atrial fibrillation to normal sinus rhythm
- FEF25-75, Mean ([2]; 20 mg eTLD, 24 hours Post-dose): 5.40 L/s
- FEF25-75, Mean ([2]; 40 mg eTLD, 12 hours Pre-dose): 5.00 L/s
- FEF25-75, Mean ([2]; 40 mg eTLD, 24 hours Post-dose): 4.80 L/s
- standard lung spirometry measurements (FEV1, PEF, FVC, FEF 25-75) and peripheral O2 saturation ([2]; Cohorts 1, 2, 3 and 5): normal before and after
- respiratory rate ([3]; Cohorts 1, 2, 3 and 5): minimal or no changes in respiratory rate
- Auscultation [3, 13]: normal in all subjects
- Chest x-rays [3, 13]: normal and showed no changes
- respiration rate [3, 13]: No changes in respiration rate
- QRS interval duration ([4]; 30 min after completion of inhalation, Cohorts 1-3): returned to near pre-dose levels
- T-wave morphology ([4]; IV infusion 2 mg/kg): T-wave notching
- non-specific intraventricular conduction delay ([4]; IV infusion 2 mg/kg): 3 of 6 subjects
- smaller changes in QRS interval duration, inhalation vs IV infusion ([4]; eTLD 30 mg vs ˜150 mg IV): 2.7 fold
- lower plasma concentration by inhalation for QRS prolongation as after IV (6.2/2.7) ([4]; in vivo, iv): 2.3 fold
- T-wave morphology ([4]; inhalation 20, 30 and 40 mg eTLD): No changes in T-wave morphology
- lower plasma level after inhalation at near-equal ΔQRS ([4]; inhalation vs IV): 2.6 fold
- mean ΔQRS ([4]; inhaled 20 mg eTLD, between 1 and 3 minutes after end of inhalation): small increase of mean ΔQRS
- PR interval duration prolonged from start of inhalation ([4]; inhaled 30 mg eTLD, 5 min after completion of inhalation): 12 ms
- QRS duration ([4]; inhaled 40 mg eTLD, Cohort 2): transient increase between 1 and 3 minutes post-dosing
- changes of the PR interval duration ([4]; inhaled 20 or 40 mg eTLD): Minimal or no changes
- non-specific intraventricular conduction delay ([4]; oral inhalation eTLD of 30 mg): not observed in any of the same subjects
- decrease of R-wave amplitude (QRSa) ([4]; subject R222, 40 mg eTLD, 3 min post-dosing): 400 μV
- increase of QRS duration (QRSd) ([4]; subject R222, inhaled 40 mg eTLD, 1 minute post-dosing): 10 ms
- recurrence of AF after restoration of sinus rhythm ([5]; 30-min window of observation): no recurrence of AF occurred
- AF duration ([5]; Pig 236 (No drug 10)): 4 min
- AF duration ([5]; Pig 238 (No drug 12)): 3 min
- AF duration ([5]; Pig 239 (No drug 12)): 3 min
- time within which plasma concentration reached levels required for conversion ([6]; IT 0.75 mg/kg and 1.5 mg/kg (FIG. 66A)): ≤ 10 min
- dominant frequency of AF ([6]; IT 0.75 mg/kg and 1.5 mg/kg (FIG. 67)): reduced the dominant frequency of AF
- AF conversion in representative electrograms ([6]; IT 1.5 mg/kg (FIG. 65)): 5 min
- MAP and ventricular rate after conversion ([6]; IT 1.5 mg/kg or 0.75 mg/kg): restored MAP and ventricular rate to baseline values
- plasma concentrations transiently higher in the LV than in the PA (summary) ([7]; IT): ~2.5 fold
- plasma levels higher in the LV than in the systemic venous circulation ([7]; IT, at the time of conversion): ~2 fold
- plasma concentrations transiently higher in the PA than in the LV (summary) ([7]; IV infusion): ~3.5 fold
- time after administration at which LV and PA concentrations were nearly equal ([7]; IV or IT): 4 to 10 min
- pH of solution in water (2.6 mg/mL): 5.0
- appearance of solution (distilled water, diltiazem hydrochloride 50 mg/ml, flecainide acetate 30 mg/ml): clear with no visible particulate matter
- decrease in systolic pressure [8]: ≤ 18 mmHg
- maximal increase in HR [8]: 7 bpm
- transient decrease in systolic pressure [8]: 9 mmHg
- HR ([8]; 2 mg/kg): An increase in HR was observed
- systolic and diastolic BP ([8]; 2 mg/kg): Decreases in systolic and diastolic BP were observed
- Adverse Event: Cough ([9]; both, human): 1
- Adverse Event: Lightheadedness ([9]; both, human): 1
- study-drug related Cough ([9]; both, human): 3 events in 3/25 subjects (12%)
- study-drug related Dry mouth ([9]; both, human): 3 events in 3/25 subjects (12%)
- study-drug related Dysgeusia ([9]; both, human): 2 events in 2/25 subjects (8%)
- study-drug related Dyspnoea (shortness of breath) ([9]; both, human): 4 events in 4/25 subjects (16%)
- study-drug related Oropharyngeal discomfort ([9]; both, human): 10 events in 10/25 subjects (40%)
- study-drug related dizziness ([9]; both, human): 3 events in 3/25 subjects (12%)
- study-drug related headache ([9]; both, human): 3 events in 2/25 subjects (8%)
- average events per subject ([9]; human): 2
- probably study-drug related oropharyngeal discomfort, subjects ([9]; human): 4
- study-drug related paresthesia oral ([9]; human): 3 events in 3 subjects
- average events per subject ([9]; human, iv): 7
- hypotension (systolic BP) for which the IV infusion had to be interrupted ([9]; human, iv): < 65 mmHg
- severe and moderate intensity AEs probably related to the study drug ([9]; human, iv): 1 severe and 2 moderate intensity AEs
- study-drug related application site coldness ([9]; human, iv): 2 occurrences in 2 subjects
- study-drug related dizziness ([9]; human, iv): 6 events in 6 subjects
- study-drug related headache ([9]; human, iv): 5 events in 5 subjects
- study-drug related peripheral coldness, palpitations, and chest discomfort ([9]; human, iv): each occurring 2 times 1 subject
- Number of Moderate or Severe TEAEs ([9]; human, iv, 2 mg/kg): 4
- Number of Related TEAEs ([9]; human, iv, 2 mg/kg): 35
- Number of Related, Moderate or Severe TEAEs ([9]; human, iv, 2 mg/kg): 4
- Number of SAEs ([9]; human, iv, 2 mg/kg): 0
- Number of Subjects with at least one Moderate or Severe TEAE ([9]; human, iv, 2 mg/kg): 2 subjects (29%) n (%)
- Number of Subjects with at least one TEAE ([9]; human, iv, 2 mg/kg): 7 (100) n (%)
- Number of Treatment-Emergent Adverse Events ([9]; human, iv, 2 mg/kg): 49
- TEAE: Chest discomfort ([9]; human, iv, 2 mg/kg): 3 such events also occurred in 1 subject n (%) [events]
- TEAE: Dizziness ([9]; human, iv, 2 mg/kg): 6 events in 6/7 subjects, 86% n (%) [events]
- TEAE: Headache ([9]; human, iv, 2 mg/kg): 6 events in 5/7 subjects, 71% n (%) [events]
- remaining study-drug related events (cough, dysphonia, dyspnoea, oral hypoesthesia, chest discomfort) ([9]; human, po): once in 1 subject each
- serious adverse events [9]: No serious adverse events were reported
- tolerability [9]: well tolerated
- Number of SAEs ([9]; iv, 2 mg/kg): no SAEs reported
- Tmax [10]: 10.0 min after EOI
- concentration at 30 min ([11]; LV plasma level): 497 ± 190 ng/mL
- concentration at 30 min ([11]; Venous plasma level): 519 ± 196 ng/mL
- solubility [12]: ~30 mg/mL

— patent publication US10441537B2, “Unit doses, aerosols, kits, and methods for treating heart conditions by pulmonary administration” (InCarda Therapeutics, Inc., priority 2017, dated 2019)
